Measured values: patent US20240285808A1, “MOLECULAR PROBES FOR IN VIVO DETECTION OF ALDEHYDES” (The General Hospital Corporation, priority 2021, published 2024)
Several values for one entry are separate records, joined by “and”; a condition that tells them apart may be missing. Equal entries are not always repeated. Where two headings read alike, the source gives them in different places.

Tests used:
[1] = target: T1, BSA-ALD (oxidized bovine serum albumin containing allysine aldehyde groups) (Bos taurus, UniProt P02769); experiment: Relaxivity measurements with BSA-Ald; type: binding; details: for r1, +BSA-Ald / r1, Bound to BSA-Ald: 1.4 T; for r1, +BSA-Ald / r1, Bound to BSA-Ald / increase of r1 in BSA^Ald compared to PBS value: 37° C.; for r1, +BSA-Ald: BSA-Ald 10 mg/mL; for r1, Bound to BSA-Ald: protein-bound species after NaBH3CN and ultrafiltration; for increase of r1 in BSA^Ald compared to PBS value: 1.41 T
T1 construct: made in house; host or cells: no expression host: BSA oxidised chemically with sodium ascorbate, ferric chloride and H2O2, then desalted on PD-10

[2] = Relaxivity measurements in PBS; type: physicochemical; details: 1.4 T, 37° C.
[3] = target: bovine serum albumin (BSA) (Bos taurus, UniProt P02769); experiment: Relaxivity measurements with BSA; type: binding; details: 1.4 T, 37° C., BSA 10 mg/mL
[4] = Kinetics of hydrolysis of butyraldehyde condensation products; type: physicochemical
Description: Quantitative Measurements of Kinetics of Hydrolysis:
One mM solutions of Mn-15-Ald, Mn-16-Ald and Mn-17-Ald (where Mn-Ald refers to the reaction product with either Mn-15, Mn-16, or Mn-17) were prepared by the following procedure: 1 mM (1 mL) of Mn-15, Mn-16 or Mn-17 were prepared in PBS (pH 7.4) followed by addition of butyraldehyde (14.4 mg, […]). The mixture was rocked gently under room temperature for 10 min and then freeze-dried for 12 hours. Then, the obtained white solid was redissolved in 1 mL water.
The HPLC trace of each butyraldehyde reaction product was measured by Method 25 (Mn-15-Ald) and Method 26 (Mn-16-Ald, Mn-17-Ald). Then, a 37% stock solution of formaldehyde was added to give a final formaldehyde concentration of 200 mM.
The hydrolysis of the hydrazone/oxime is reversible. An excess of formaldehyde was added to trap the liberated nitrogen base and thereby push the hydrolysis reaction to completion, allowing the hydrolysis reaction to be monitored without interference from the reverse reaction. So, the kinetics for hydrolysis of Mn-15-Ald, Mn-16-Ald and Mn-17-Ald follows the rate law.
where Y is the % hydrolysis, t is time, kobs,H is the first-order rate constant, and Ymax is the % hydrolysis at t=∞. Kinetic traces were obtained in triplicate, and half-lives were calculated with equation 20: […]
The novel Mn-PC2A derivatives (FIG. 1A) were synthesized in 6 steps from the pyclen macrocycle. Hydrazone formation kinetics with butyraldehyde as a model compound were measured by UV spectroscopy at 220 nm, 25° C., pH 7.4, PBS. Hydrazone hydrolysis kinetics were measured by HPLC with UV detection at 220 nm using excess formaldehyde to trap the liberated hydrazine and prevent the reverse reaction. Allysine-modified BSA (BSA-Ald, 17.4 mg/mL, […] aldehyde) as a soluble model protein or BSA (17.3 mg/mL, 16.8 μM aldehyde) and Mn-15 or Mn-17 (50-200 μM) were incubated at 37° C. for 3 hours, and 1/T1 was measured at 1.4 T, 37° C., and plotted vs concentration to obtain relaxivity. The protein bound probe was isolated by ultrafiltration and the relaxivity of the protein-bound fraction measured. All Mn concentrations were measured by ICP-MS. Liver fibrosis was induced in male C57BL/6 mice by oral gavage with CCl4 for 12 weeks, 2-3 times per week, while control mice received vehicle (olive oil). 3D FLASH images (TR/TE/FA=15 ms/2 ms/30°, 0.25 mm^3 spatial resolution) were acquired on a 4.7 T Bruker Biospec prior to and dynamically for 40 min p.i. of 100 μmol/kg Mn-15. Liver to muscle contrast to noise was calculated as CNR=(SILiver−SIMuscle)/SDAir where SI=signal intensity and SD=standard deviation in SI.

[5] = butyraldehyde reaction product, formaldehyde 200 mM as trap

T1 sequence (P02769 25-607): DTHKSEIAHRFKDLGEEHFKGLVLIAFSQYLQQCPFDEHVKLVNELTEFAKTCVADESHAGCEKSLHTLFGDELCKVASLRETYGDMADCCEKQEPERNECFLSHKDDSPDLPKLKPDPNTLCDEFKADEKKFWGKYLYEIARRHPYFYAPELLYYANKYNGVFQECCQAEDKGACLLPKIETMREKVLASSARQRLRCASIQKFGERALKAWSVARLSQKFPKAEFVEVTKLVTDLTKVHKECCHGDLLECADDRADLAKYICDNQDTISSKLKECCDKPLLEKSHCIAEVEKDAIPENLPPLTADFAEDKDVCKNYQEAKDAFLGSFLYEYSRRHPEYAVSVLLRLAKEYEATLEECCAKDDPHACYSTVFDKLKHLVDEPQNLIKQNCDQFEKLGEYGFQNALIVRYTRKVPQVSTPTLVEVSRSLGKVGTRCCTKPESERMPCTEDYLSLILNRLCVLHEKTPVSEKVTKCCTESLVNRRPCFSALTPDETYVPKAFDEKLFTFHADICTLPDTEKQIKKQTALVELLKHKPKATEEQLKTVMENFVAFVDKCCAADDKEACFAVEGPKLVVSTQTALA
Chain of bovine serum albumin (BSA) (P02769 25-607): as above

In the case of `NOC(CCC(=O)NCCCN1CCN(CC(=O)[O-])Cc2cccc(n2)CN(CC(=O)[O-])CC1)C(=O)O.[Mn+2]` (stereo not shown) [Mn-16], the “turn-on in relaxivity upon binding to allysine (BSA-Ald bound vs unbound)” value [1] was 4 fold, the “r1, +BSA-Ald” value [1] was 7.7 mM⁻¹ s⁻¹ and the “r1, Bound to BSA-Ald” value [1] was 12.7 mM⁻¹ s⁻¹. For the same compound, the “r1, PBS” value [2] was 3.1 mM⁻¹ s⁻¹, the “r1, +BSA” value [3] was 3.4 mM⁻¹ s⁻¹ and the hydrolysis rate constant [4] was 7.9e-07 s⁻¹. For the same compound, the hydrolysis rate constant [4, 5] was 0.79 ± 0.03 ×10^−6 s^−1.
In the case of `NNCC(=O)NCCCN1CCN(CC(=O)[O-])Cc2cccc(n2)CN(CC(=O)[O-])CC1.[Mn+2]` [Mn-17], the “turn-on in relaxivity upon binding to allysine (BSA-Ald bound vs unbound)” value [1] was 4 fold and ~3 fold, the “r1, +BSA-Ald” value [1] was 5.6 mM⁻¹ s⁻¹ and the “r1, Bound to BSA-Ald” value [1] was 11.4 mM⁻¹ s⁻¹. For the same compound, the “increase of r1 in BSA^Ald compared to PBS value” (“increase of r1 in BSA^Ald” below) [1] was 90%, the “r1, PBS” value [2] was 3.0 mM⁻¹ s⁻¹ and the “r1, +BSA” value [3] was 3.5 mM⁻¹ s⁻¹. For the same compound, the hydrolysis rate constant [4] was 0.00041 s⁻¹ and the hydrolysis rate constant [4, 5] was 0.41 ± 0.01 ×10^−3 s^−1.
For `NNC(CCC(=O)NCCCN1CCN(CC(=O)[O-])Cc2cccc(n2)CN(CC(=O)[O-])CC1)C(=O)O.[Mn+2]` (stereo not shown) [Mn-15], the “turn-on in relaxivity upon binding to allysine (BSA-Ald bound vs unbound)” value [1] was 4 fold and ~3 fold, the “turn on in relaxivity” value ([1]; 1.4T) was 270% and the “r1, +BSA-Ald” value [1] was 5.9 mM⁻¹ s⁻¹. The “r1, Bound to BSA-Ald” value [1] was 12.7 mM⁻¹ s⁻¹, the “increase of r1 in BSA^Ald” value [1] was 90% and the “r1, PBS” value [2] was 3.1 mM⁻¹ s⁻¹. The “r1, +BSA” value [3] was 3.6 mM⁻¹ s⁻¹, the hydrolysis rate constant [4] was 0.00103 s⁻¹ and the “times higher hydrolysis rate constant compared to Mn-17” value [4] was 2 fold. For the same compound, the hydrolysis rate constant [4, 5] was 1.03 ± 0.15 ×10^−3 s^−1.
With `NN1CCN(C(=O)CCC(C(=O)[O-])N2CCN(CC(=O)[O-])CCN(C(CCC(=O)N3CCN(N)CC3)C(=O)[O-])CCN(CC(=O)[O-])CC2)CC1.[Gd+3]` (stereo not drawn) [Gd-10, trans-1,7-Gd-(CHyd)2] the “r1, +BSA-Ald” value [1] was 9.0 mM⁻¹ s⁻¹, the “r1, Bound to BSA-Ald” value [1] was 18.7 mM⁻¹ s⁻¹ and the “increase of r1 in BSA^Ald” value [1] was 36%. For the same compound, the “r1, PBS” value [2] was 6.6 mM⁻¹ s⁻¹ and the “r1, +BSA” value [3] was 6.6 mM⁻¹ s⁻¹.
With `CN(C)C(CCC(=O)NCCCN1CCN(CC(=O)[O-])Cc2cccc(n2)CN(CC(=O)[O-])CC1)C(=O)O.[Mn+2]` (stereo not shown) [Mn-18] the “r1, +BSA-Ald” value [1] was 3.6 mM⁻¹ s⁻¹, the “r1, PBS” value [2] was 3.1 mM⁻¹ s⁻¹ and the “r1, +BSA” value [3] was 3.5 mM⁻¹ s⁻¹.
In the case of `NN1CCN(C(=O)CCC(C(=O)[O-])N2CCN(CC(=O)[O-])CCN(CC(=O)[O-])CCN(C(CCC(=O)N3CCN(N)CC3)C(=O)[O-])CC2)CC1.[Gd+3]` (stereo not drawn) [Gd-9, cis-1,4-Gd-(CHyd)2], the “fold higher relaxivity than Gd-CHyd” value [1] was 2.3 fold, the “higher protein-bound relaxivity than monobinder Gd-CHyd” value [1] was 50% and the “r1, +BSA-Ald” value [1] was 11.7 mM⁻¹ s⁻¹ and 11.2 mM⁻¹ s⁻¹. For the same compound, the “r1, Bound to BSA-Ald” value [1] was 17.7 mM⁻¹ s⁻¹, the “increase of r1 in BSA^Ald” value [1] was 77% and the “r1, PBS” value [2] was 6.6 mM⁻¹ s⁻¹. The “r1, +BSA” value [3] was 6.6 mM⁻¹ s⁻¹ and 6.5 mM⁻¹ s⁻¹.
